Experimental data from ChEMBL document CHEMBL1139933, “Synthesis of andrographolide derivatives: a new family of alpha-glucosidase inhibitors” (Bioorg Med Chem, 2007).
The source made the active and inactive calls. The rule behind the calls is not given here.

Each molecule was assayed against T1, Maltase-glucoamylase (Homo sapiens, UniProt O43451) (assay: Inhibition of alpha-glucosidase at 100 uM).
Target sequence in this assay (O43451 whole entry, looked up): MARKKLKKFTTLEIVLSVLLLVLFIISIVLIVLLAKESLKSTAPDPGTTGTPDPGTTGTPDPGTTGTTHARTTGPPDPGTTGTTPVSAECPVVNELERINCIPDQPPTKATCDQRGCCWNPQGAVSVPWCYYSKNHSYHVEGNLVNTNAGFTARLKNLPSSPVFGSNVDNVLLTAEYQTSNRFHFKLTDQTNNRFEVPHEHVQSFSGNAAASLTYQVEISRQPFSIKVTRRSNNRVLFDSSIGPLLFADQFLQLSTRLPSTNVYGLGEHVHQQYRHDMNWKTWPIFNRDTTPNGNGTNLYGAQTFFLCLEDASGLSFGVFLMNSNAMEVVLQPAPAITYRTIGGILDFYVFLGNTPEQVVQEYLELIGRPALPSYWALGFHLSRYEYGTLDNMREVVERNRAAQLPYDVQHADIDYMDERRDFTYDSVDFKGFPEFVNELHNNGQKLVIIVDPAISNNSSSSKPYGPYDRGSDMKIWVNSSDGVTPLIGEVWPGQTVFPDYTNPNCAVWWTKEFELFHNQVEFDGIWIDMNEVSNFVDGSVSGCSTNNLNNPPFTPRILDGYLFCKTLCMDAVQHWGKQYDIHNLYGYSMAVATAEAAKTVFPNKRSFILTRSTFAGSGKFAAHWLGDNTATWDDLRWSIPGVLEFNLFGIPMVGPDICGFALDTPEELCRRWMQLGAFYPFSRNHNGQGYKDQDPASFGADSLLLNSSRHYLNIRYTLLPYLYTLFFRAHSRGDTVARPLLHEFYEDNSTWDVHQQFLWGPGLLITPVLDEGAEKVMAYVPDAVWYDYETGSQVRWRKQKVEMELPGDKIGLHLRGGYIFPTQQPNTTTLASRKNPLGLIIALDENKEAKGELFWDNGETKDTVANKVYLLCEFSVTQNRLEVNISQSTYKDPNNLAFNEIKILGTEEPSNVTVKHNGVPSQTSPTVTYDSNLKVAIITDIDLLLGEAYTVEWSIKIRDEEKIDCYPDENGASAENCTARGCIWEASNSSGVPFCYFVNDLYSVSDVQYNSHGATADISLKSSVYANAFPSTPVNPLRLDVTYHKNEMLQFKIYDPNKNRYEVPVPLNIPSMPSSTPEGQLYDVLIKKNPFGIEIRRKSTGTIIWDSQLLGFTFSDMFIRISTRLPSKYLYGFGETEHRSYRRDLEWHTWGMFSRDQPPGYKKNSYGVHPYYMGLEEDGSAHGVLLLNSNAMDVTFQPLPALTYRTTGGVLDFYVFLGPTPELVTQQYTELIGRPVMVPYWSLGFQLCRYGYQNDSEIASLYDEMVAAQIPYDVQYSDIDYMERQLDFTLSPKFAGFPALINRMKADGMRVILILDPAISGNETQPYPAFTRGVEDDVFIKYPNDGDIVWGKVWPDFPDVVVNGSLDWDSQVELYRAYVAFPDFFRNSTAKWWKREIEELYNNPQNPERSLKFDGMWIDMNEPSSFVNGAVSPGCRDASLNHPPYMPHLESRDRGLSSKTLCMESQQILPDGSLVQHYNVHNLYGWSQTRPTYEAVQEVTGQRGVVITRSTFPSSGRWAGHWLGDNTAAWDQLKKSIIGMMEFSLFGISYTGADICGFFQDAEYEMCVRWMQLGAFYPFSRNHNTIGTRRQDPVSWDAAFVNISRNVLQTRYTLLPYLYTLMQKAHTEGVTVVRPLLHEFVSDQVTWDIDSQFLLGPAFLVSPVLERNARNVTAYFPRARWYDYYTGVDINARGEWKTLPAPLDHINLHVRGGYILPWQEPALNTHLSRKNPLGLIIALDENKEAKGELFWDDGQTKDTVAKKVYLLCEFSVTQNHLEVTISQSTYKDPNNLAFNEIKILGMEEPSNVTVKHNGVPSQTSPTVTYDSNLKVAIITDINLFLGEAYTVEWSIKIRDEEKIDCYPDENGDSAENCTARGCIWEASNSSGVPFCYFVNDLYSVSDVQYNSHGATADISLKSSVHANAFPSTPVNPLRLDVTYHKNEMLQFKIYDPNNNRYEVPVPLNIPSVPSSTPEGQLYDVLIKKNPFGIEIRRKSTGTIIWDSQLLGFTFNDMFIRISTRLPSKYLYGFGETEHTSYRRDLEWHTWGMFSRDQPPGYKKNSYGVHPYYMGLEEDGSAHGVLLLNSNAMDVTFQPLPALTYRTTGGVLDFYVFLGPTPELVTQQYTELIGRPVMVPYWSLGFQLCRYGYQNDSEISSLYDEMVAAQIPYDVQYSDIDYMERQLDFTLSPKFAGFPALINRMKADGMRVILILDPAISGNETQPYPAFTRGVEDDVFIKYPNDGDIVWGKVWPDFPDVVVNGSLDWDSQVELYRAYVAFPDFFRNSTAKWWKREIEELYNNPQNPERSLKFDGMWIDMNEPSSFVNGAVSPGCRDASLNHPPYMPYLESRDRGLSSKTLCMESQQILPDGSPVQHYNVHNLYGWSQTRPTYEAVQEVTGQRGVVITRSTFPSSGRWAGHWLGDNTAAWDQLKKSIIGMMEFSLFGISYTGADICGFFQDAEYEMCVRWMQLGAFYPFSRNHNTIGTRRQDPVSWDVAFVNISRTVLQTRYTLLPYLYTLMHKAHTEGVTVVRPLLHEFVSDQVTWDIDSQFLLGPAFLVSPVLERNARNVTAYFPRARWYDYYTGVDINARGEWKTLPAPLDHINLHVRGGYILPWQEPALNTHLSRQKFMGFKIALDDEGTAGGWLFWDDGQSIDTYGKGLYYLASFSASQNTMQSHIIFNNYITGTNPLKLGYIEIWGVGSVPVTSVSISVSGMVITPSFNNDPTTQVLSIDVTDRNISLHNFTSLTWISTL

Row | inhibition | Activity | SMILES
1 | 6.9% | – | C=C1CC[C@@H]2[C@]3(C)COCO[C@@H]3CC[C@@]2(C)[C@@H]1CC(O)C1=CCOC1=O (stereo partly specified)
2 | 100% | – | C=C1CC[C@@H]2[C@](C)(COC(=O)c3cccnc3)[C@H](OC(=O)c3cccnc3)CC[C@@]2(C)[C@@H]1/C=C/C1=CC(=C\c2ccccc2)/OC1=O
3 | 100% | – | C=C1CC[C@@H]2[C@](C)(COC(=O)c3cccnc3)[C@H](OC(=O)c3cccnc3)CC[C@@]2(C)[C@@H]1/C=C/C1=CC(=C\c2cccc(Br)c2)/OC1=O
4 | 74.8% | – | C=C1CC[C@@H]2[C@](C)(COC(=O)c3cccnc3)[C@H](OC(=O)c3cccnc3)CC[C@@]2(C)[C@@H]1/C=C/C1=CC(=C\c2ccc(N(C)C)cc2)/OC1=O
5 | – | inactive | C=C1CC[C@@H]2[C@](C)(CO)[C@H](O)CC[C@@]2(C)[C@@H]1C/C=C1/C(=O)OC[C@H]1O
6 | 95.9% | – | C=C1CC[C@@H]2[C@](C)(COC(=O)c3cccnc3)[C@H](OC(=O)c3cccnc3)CC[C@@]2(C)[C@@H]1/C=C/C1=CC(=C/c2ccco2)/OC1=O
7 | 49.6% | – | C=C1CC[C@@H]2[C@](C)(CO)[C@H](O)CC[C@@]2(C)[C@@H]1/C=C/C1=CC(=C/c2ccco2)/OC1=O
8 | – | inactive | C=C1CC[C@@H]2[C@](C)(CO)[C@H](O)CC[C@@]2(C)[C@@H]1CCC1CCOC1=O (stereo partly specified)
9 | 60.6% | – | C=C1CC[C@@H]2[C@](C)(CO)[C@H](O)CC[C@@]2(C)[C@@H]1/C=C/C1=CC(=C/c2ccc(N(C)C)cc2)/OC1=O
10 | 59.3% | – | C=C1CC[C@@H]2[C@](C)(CO)[C@H](O)CC[C@@]2(C)[C@@H]1/C=C/C1=CC(=C/c2ccc3c(c2)OCO3)/OC1=O
11 | 57.8% | – | C=C1CC[C@@H]2[C@](C)(CO)[C@H](O)CC[C@@]2(C)[C@@H]1/C=C/C1=CC(=C/c2cc(OC)c(OC)cc2OC)/OC1=O
12 | 68.9% | – | C=C1CC[C@@H]2[C@](C)(COC(=O)c3cccnc3)[C@H](OC(=O)c3cccnc3)CC[C@@]2(C)[C@@H]1/C=C/C1=CC(=C\C(C)=C\CCC/C=C/C)/OC1=O
13 | – | inactive | C[C@]1(CO)[C@H]2CC[C@@]3(CO3)[C@@H](C/C=C3/C(=O)OC[C@H]3O)[C@]2(C)CC[C@H]1O
14 | – | inactive | C=C1CC[C@@H]2[C@](C)(CO)[C@H](O)CC[C@@]2(C)[C@@H]1/C=C/C1=CC(=C/c2ccc(F)cc2)/OC1=O
15 | 84.3% | – | C=C1CC[C@@H]2[C@](C)(CO)[C@H](O)CC[C@@]2(C)[C@@H]1/C=C/C1=CC(=C/c2ccccc2)/OC1=O
16 | 100% | – | C=C1CC[C@@H]2[C@](C)(COC(=O)c3cccnc3)[C@H](OC(=O)c3cccnc3)CC[C@@]2(C)[C@@H]1/C=C/C1=CC(=C\c2ccc(OC)cc2)/OC1=O
17 | – | inactive | C=C1CC[C@@H]2[C@](C)(CO)[C@H](O)CC[C@@]2(C)[C@@H]1/C=C/C1=CC(=C/c2ccc(Cl)cc2)/OC1=O
18 | 100% | – | C=C1CC[C@@H]2[C@](C)(COC(=O)c3cccnc3)[C@H](OC(=O)c3cccnc3)CC[C@@]2(C)[C@@H]1/C=C/C1=CC(=C\c2ccc(Cl)cc2)/OC1=O
19 | – | inactive | C=C1CC[C@@H]2[C@](C)(CO)[C@H](O)CC[C@@]2(C)[C@@H]1/C=C/C1=CC(=C\C(C)=C\CCC/C=C/C)/OC1=O

Each molecule was assayed against T1, Maltase-glucoamylase (assay: Inhibition of alpha-glucosidase at 1 mM).
Target sequence in this assay (O43451 whole entry, looked up): as above

Row | inhibition | SMILES
20 | 56.5% | C[C@H]1O[C@H](O[C@H]2[C@H](O)[C@@H](O)[C@@H](O[C@H]3[C@H](O)[C@@H](O)C(O)O[C@@H]3CO)O[C@@H]2CO)[C@H](O)[C@@H](O)[C@@H]1N[C@H]1C=C(CO)[C@@H](O)[C@H](O)[C@H]1O (stereo partly specified)

The molecules below were run against T1, Maltase-glucoamylase (assay: Inhibition of alpha-glucosidase).
Target sequence in this assay (O43451 whole entry): as the sequence (O43451 whole entry, looked up) above

Row | IC50 | SMILES
21 | 16 µM | C=C1CC[C@@H]2[C@](C)(CO)[C@H](O)CC[C@@]2(C)[C@@H]1/C=C/C1=CC(=C/c2ccc(OC)cc2)/OC1=O
